This assay addresses T1, LPO purified from bovine milk (Bos taurus, UniProt P80025).
T1 construct: from tissue; host or cells: fresh bovine milk
Put plainly: LPO inhibition assay (ABTS oxidation by H2O2, absorbance at 412 nm; Lineweaver–Burk plots). Type of assay: biochemical. Particulars: for IC50: from activity (%)-[inhibitor] regression graphs, ABTS substrate; for Inhibition Type: with respect to ABTS substrate, from Lineweaver–Burk plots. The method, then: LPO activities were determined by the procedure of Shindler and Bardsley with slight modification. This method is based on the oxidation of chromogenic substrate 2,2′-azino-bis(3-ethylbenzothiazoline-6-sulfonic acid) (ABTS) by hydrogen peroxide (H2O2), which results in a product which had absorbance at 412 nm.
The effects of secondary sulfonamide derivatives (4a–8h) on LPO purified from fresh bovine milk by affinity chromatography technique were previously determined. In our study, LPO activity was measured in the presence of different concentrations of secondary sulfanilamide derivatives (4a–8h). A control sample without secondary sulfonamide was taken as 100%. An activity (%)-[Secondary sulfonamide] plot was drawn. For the determination of the inhibition constant (Ki) values, three different secondary sulfonamide derivative (4a–8h) concentrations were used. Additionally, ABTS was used as a substrate at five different concentrations. Lineweaver–Burk plots (1/V-1/[ABTS]) were obtained for secondary sulfonamide; the Ki and the inhibition type were calculated from these plots. The data obtained were analysed by t-test and the results are given as Means ± SD.

Setting [1] is: LPO purified from bovine milk, Lineweaver–Burk plots, three inhibitor and five ABTS concentrations, Means ± SD.

Take `O=C(Nc1ccc(S(=O)(=O)Nc2nccs2)cc1)c1ccc(O)cc1` [7a, N-(sulfathiazole)-p-hydroxybenzamide]: the “Inhibition Type” value is listed as “Non-competitive”. In addition, under setting [1], the Ki (commonly a measure of affinity in units of concentration, obtained from inhibition or displacement) is 6850 ± 1810 nM. Besides, where the note is “LPO purified from bovine milk”, it took 15100 nM to reach half-maximal inhibition (IC50).
Turning to `Nc1ccc(S(=O)(=O)Nc2ccccn2)cc1` [4d, Sulfapyridine, reference compound], the “Inhibition Type” value is “Competitive”. For the same compound, the Ki under setting [1] was 65000 ± 3610 nM. Further, the IC50 (as a rule, the concentration needed to halve the response being measured) (LPO purified from bovine milk) amounted to 227000 nM.
Take `CC(=O)Oc1ccc(C(=O)Nc2ccc(S(=O)(=O)Nc3onc(C)c3C)cc2)cc1` [5e, N-(sulfisoxazole)-p-acetoxybenzamide]: the “Inhibition Type” value is “Competitive”. In addition, the affinity under setting [1], expressed as Ki, was 934 ± 357 nM. Under “LPO purified from bovine milk”, 3030 nM corresponded to half-maximal inhibition (IC50).
In the case of `Cc1cc(C)nc(NS(=O)(=O)c2ccc(NC(=O)c3ccc(O)cc3)cc2)n1` [7c, N-(sulfamethazine)-p-hydroxybenzamide], the “Inhibition Type” value was “Non-competitive”. Further, under setting [1], the Ki came out at 484 ± 146 nM. This compound displayed an IC50 (LPO purified from bovine milk) of 426 nM.
Regarding `CC(=O)Oc1cc(C(=O)Nc2ccc(S(=O)(=O)Nc3onc(C)c3C)cc2)cc(OC(C)=O)c1OC(C)=O` [6e, N-(sulfisoxazole)-3,4,5-triacetoxybenzamide], the “Inhibition Type” value is “Competitive”. For the same compound, the Ki under setting [1] is 1070 ± 20 nM. Moreover, where the note is “LPO purified from bovine milk”, half-maximal inhibition (IC50) required 2030 nM.
As to `CC(=O)Oc1cc(C(=O)Nc2ccc(S(=O)(=O)Nc3nccc(C)n3)cc2)cc(OC(C)=O)c1OC(C)=O` [6g, N-(sulfamerazine)-3,4,5-triacetoxybenzamide], the “Inhibition Type” value is on record as “Non-competitive”. The Ki under setting [1] was found to be 1490 ± 280 nM. Also, the IC50 (LPO purified from bovine milk) turned out to be 1280 nM.
Taken in the same sequence, the figures for `Cc1nnc(NS(=O)(=O)c2ccc(NC(=O)c3ccc(O)cc3)cc2)s1` [7f, N-(sulfamethizole)-p-hydroxybenzamide] were “Competitive”, 387 ± 150 nM and 799 nM.
In the same order, the values of `Cc1cc(C)nc(NS(=O)(=O)c2ccc(NC(=O)c3cc(O)c(O)c(O)c3)cc2)n1` [8c, N-(sulfamethazine)-3,4,5-trihydroxybenzamide] are “Competitive”, 2170 ± 880 nM and 2530 nM.
As to `O=C(Nc1ccc(S(=O)(=O)Nc2ncccn2)cc1)c1ccc(O)cc1` [7b, N-(sulfadiazine)-p-hydroxybenzamide], the “Inhibition Type” value is “Noncompetitive”. Besides, the Ki under setting [1] stood at 44 ± 22 nM. Under “LPO purified from bovine milk”, this compound had an IC50 of 40 nM.
For the compound `O=C(Nc1ccc(S(=O)(=O)Nc2ccccn2)cc1)c1cc(O)c(O)c(O)c1` [8d, N-(sulfapyridine)-3,4,5-trihydroxybenzamide], the “Inhibition Type” value is reported as “Competitive”. The compound further returned a Ki under setting [1] of 5850 ± 1280 nM. In addition, half-maximal inhibition (LPO purified from bovine milk) (IC50) required 10200 nM.
For the compound `O=C(Nc1ccc(S(=O)(=O)Nc2ccccn2)cc1)c1ccc(O)cc1` [7d, N-(sulfapyridine)-p-hydroxybenzamide], the “Inhibition Type” value is “Competitive”. Under setting [1], affinity was put at a Ki of 1410 ± 130 nM. For the setting “LPO purified from bovine milk”, this compound returned an IC50 of 2960 nM.
On to `CC(=O)Oc1cc(C(=O)Nc2ccc(S(=O)(=O)Nc3nc(C)cc(C)n3)cc2)cc(OC(C)=O)c1OC(C)=O` [6c, N-(sulfamethazine)-3,4,5-triacetoxybenzamide], for which the “Inhibition Type” value is given as “Non-competitive”. The compound further had a Ki under setting [1] of 152000 ± 48700 nM. For the same compound, under “LPO purified from bovine milk”, half-maximal inhibition (IC50) was put at 139000 nM.
With `CC(=O)Oc1ccc(C(=O)Nc2ccc(S(=O)(=O)Nc3ccccn3)cc2)cc1` [5d, N-(sulfapyridine)-p-acetoxybenzamide], the “Inhibition Type” value was “Competitive”. The Ki under setting [1] came to 49100 ± 20000 nM. For the same compound, where the note is “LPO purified from bovine milk”, the IC50 worked out at 10000 nM.
On to `Cc1noc(NS(=O)(=O)c2ccc(NC(=O)c3cc(O)c(O)c(O)c3)cc2)c1C` [8e, N-(sulfisoxazole)-3,4,5-trihydroxybenzamide], for which the “Inhibition Type” value is “Competitive”. The compound also gave a Ki under setting [1] of 1440 ± 520 nM. The same compound registered an IC50 (LPO purified from bovine milk) of 1990 nM.
For `O=C(Nc1ccc(S(=O)(=O)Nc2ncccn2)cc1)c1cc(O)c(O)c(O)c1` [8b, N-(sulfadiazine)-3,4,5-trihydroxybenzamide], the “Inhibition Type” value was “Non-competitive”. Under setting [1], this compound returned a Ki of 1290 ± 465 nM. For the setting “LPO purified from bovine milk”, this compound showed an IC50 of 715 nM.
On to `CC(=O)Oc1cc(C(=O)Nc2ccc(S(=O)(=O)Nc3nnc(C)s3)cc2)cc(OC(C)=O)c1OC(C)=O` [6f, N-(sulfamethizole)-3,4,5-triacetoxybenzamide], for which the “Inhibition Type” value is given as “Non-competitive”. The same compound gave a Ki under setting [1] of 8550 ± 1450 nM. Under “LPO purified from bovine milk”, the concentration for half-maximal inhibition (IC50) worked out at 6660 nM.
In the same order, the values of `CC(=O)Oc1ccc(C(=O)Nc2ccc(S(N)(=O)=O)cc2)cc1` [5h, N-(sulfanilamide)-p-acetoxybenzamide] are “Non-competitive”, 2290 ± 1020 nM and 3050 nM.
Turning to `NS(=O)(=O)c1ccc(NC(=O)c2cc(O)c(O)c(O)c2)cc1` [8h, N-(sulfanilamide)-3,4,5-trihydroxybenzamide], the “Inhibition Type” value was “Non-competitive”. Further, the Ki under setting [1] worked out at 3100 ± 578 nM. Under “LPO purified from bovine milk”, this compound displayed an IC50 of 1780 nM.
On to `CC(=O)Oc1cc(C(=O)Nc2ccc(S(N)(=O)=O)cc2)cc(OC(C)=O)c1OC(C)=O` [6h, N-(sulfanilamide)-3,4,5-triacetoxybenzamide], for which the “Inhibition Type” value is given as “Non-competitive”. The affinity under setting [1] corresponds to a Ki of 2290 ± 980 nM. The IC50 (LPO purified from bovine milk) was found to be 3050 nM.
Consider `CC(=O)Oc1ccc(C(=O)Nc2ccc(S(=O)(=O)Nc3nc(C)cc(C)n3)cc2)cc1` [5c, N-(sulfamethazine)-p-acetoxybenzamide], for which the “Inhibition Type” value is on record as “Competitive”. Moreover, affinity under setting [1] was put at a Ki of 8 ± 3 nM. Further, inhibition (LPO purified from bovine milk) was half-maximal at 10 nM (IC50). Under “bovine milk LPO, values restated in text in nM”, this compound came in with a Ki of 80 nM.
Consider `Cc1nnc(NS(=O)(=O)c2ccc(NC(=O)c3cc(O)c(O)c(O)c3)cc2)s1` [8f, N-(sulfamethizole)-3,4,5-trihydroxybenzamide], for which the “Inhibition Type” value is listed as “Non-competitive”. The compound further gave a Ki under setting [1] of 293000 ± 62000 nM. The IC50 (LPO purified from bovine milk) worked out at 173000 nM.
As to `Nc1ccc(S(=O)(=O)Nc2nccs2)cc1` [4a, Sulfathiazole, reference compound], the “Inhibition Type” value is on record as “Non-competitive”. For the same compound, the Ki under setting [1] was determined as 38400 ± 6060 nM. Where the note is “LPO purified from bovine milk”, this compound showed an IC50 of 231000 nM.
As for `Cc1nnc(NS(=O)(=O)c2ccc(N)cc2)s1` [4f, Sulfamethizole, reference compound], the “Inhibition Type” value is given as “Non-competitive”. For the same compound, the Ki under setting [1] is 21200 ± 5660 nM. In addition, where the note is “LPO purified from bovine milk”, the IC50 came out at 115000 nM.
With `O=C(Nc1ccc(S(=O)(=O)Nc2nccs2)cc1)c1cc(O)c(O)c(O)c1` [8a, N-(sulfathiazole)-3,4,5-trihydroxybenzamide], the “Inhibition Type” value was “Competitive”. Besides, the inhibitory constant (Ki) under setting [1] worked out at 25 ± 10 nM. In addition, the IC50 (LPO purified from bovine milk) turned out to be 14 nM.
Take `Cc1ccnc(NS(=O)(=O)c2ccc(NC(=O)c3ccc(O)cc3)cc2)n1` [7g, N-(sulfamerazine)-p-hydroxybenzamide]: the “Inhibition Type” value is “Non-competitive”. This compound also showed a Ki under setting [1] of 3940 ± 1100 nM. Also, the midpoint of inhibition (LPO purified from bovine milk), the IC50, lay at 1760 nM.

Values taken from publication PMC6152724, “Secondary Sulfonamides as Effective Lactoperoxidase Inhibitors” (Molecules : A Journal of Synthetic Chemistry and Natural …, 2017).
